According to patent US4305944A, “N-[(4-[3-cyano substituted pyridyl]piperazino)alkyl]-azaspirodecanediones” (priority 1980, dated 1981):
Where two headings read alike, the source gives them in different places.

Columns and labels:
[1] = target: T1, alpha-adrenergic receptor (Rattus norvegicus, UniProt P43140)
T1 sequence (P43140 1-466): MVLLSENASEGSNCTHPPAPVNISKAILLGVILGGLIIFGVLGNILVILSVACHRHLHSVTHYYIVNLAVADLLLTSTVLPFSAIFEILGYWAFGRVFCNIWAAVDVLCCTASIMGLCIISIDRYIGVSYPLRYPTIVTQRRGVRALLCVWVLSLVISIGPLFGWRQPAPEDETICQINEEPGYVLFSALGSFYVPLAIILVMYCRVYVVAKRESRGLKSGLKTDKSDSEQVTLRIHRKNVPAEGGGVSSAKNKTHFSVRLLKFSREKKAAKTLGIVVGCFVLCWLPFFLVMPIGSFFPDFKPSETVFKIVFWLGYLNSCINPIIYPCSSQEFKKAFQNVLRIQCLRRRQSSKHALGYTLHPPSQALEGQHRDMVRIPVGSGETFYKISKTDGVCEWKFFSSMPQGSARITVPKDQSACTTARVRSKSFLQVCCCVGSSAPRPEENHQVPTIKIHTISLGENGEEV
From the text: (§3) IC50 (mcg/ml) alpha-adrenergic receptor blocking action
(§4) in vitro - rat seminal vesicle - 1-norepinephrine
(§5) Test VII is an in vitro measurement of alpha-adrenergic receptor blocking action employing the isolated seminal vesicle of the rat. […] A low value represents high activity.

fed rat = test: Test II: conditioned avoidance response (CAR), fed rat treated intraperitoneally (psychotropic); assay type: in vivo; conditions: for activity in the conditioned avoidance response test (Test II): in words; for ED50: ip, read-out: CAR-ED50
Experimental: Tests I and II refer to the conditioned avoidance response. Data with respect to Test II were obtained by the method described in the above Wu, et al. patents and publications in which trained rats were maintained on a standard laboratory diet and were treated intraperitoneally with the test drug. Test I is a modification of the same conditioned avoidance response test except that fasted rats were employed and the animals were treated orally.

[2] = Test III: spontaneous motor activity, activity cage mouse treated orally (CNS depression); conditions: in vivo, po
From the text: (§6) AED-0.3 (mg/kg. of body weight) activity cage
mouse treated orally (CNS depression).
(§7) Test IV involves measurement of spontaneous motor activity of mice as a reflection of the CNS depressant or sedative side effects of the test compound. […] The AED-0.3 reflects approximately 50% reduction in spontaneous motor activity.

[3] = target: alpha-adrenergic receptors in the cerebral cortex; test: Test VI: receptor binding assay, tritiated WB-4101 as ligand (alpha-adrenergic blockade); design: species or system rat; conditions: for IC50: Test VI, tritiated WB-4101 as ligand, rat cerebral cortex, in excess of 100 nM is considered inactive
From the text: (§1) Tests V and VI are receptor binding assays which measure the ability of a compound to prevent the binding of a radiolabeled ligand to specific high affinity sites in brain tissue. According to the state of the art, various ligands have been identified with aspects of CNS function or potential for side effects. The ability of a compound to inhibit labeled ligand binding in vitro is considered to be a reflection of the compound's ability to effect the corresponding CNS function or side effect in vivo.

mouse [4] = test: Test IV: spontaneous motor activity, activity cage mouse treated intraperitoneally (CNS depression); assay type: in vivo; conditions: in words; mouse
From the text: (§8) AED-0.3 (mg/kg. of body weight) activity cage,
as §7

[5] = as above; assay type: in vivo; conditions: in vivo, ip
From the text: as §8, §7

[6] = target: T1, alpha-adrenergic receptor; test: Test VII: alpha-adrenergic receptor blocking action in vitro, isolated rat seminal vesicle, 1-norepinephrine as spasmogen
From the text: as §3, §4, §5

rat = rat catalepsy test; assay type: in vivo; conditions: for rat catalepsy test result: oral doses of 200 mg/kg.
Experimental: (§2) That dose of Compound No. 7, however, constituted the ALD50 dose for rats. In mice the ALD50 of Compound No. 7 was determined to be 500 mg/kg. of body weight.

fasted rat = test: Test I: conditioned avoidance response (CAR), fasted rat treated orally (psychotropic); assay type: in vivo; conditions: for ED50: read-out: CAR-ED50
Experimental: I. CAR-ED50 (mg/kg. of body weight) fasted rat
treated orally (psychotropic).
Tests I and II refer to the conditioned avoidance response. […] Test I is a modification of the same conditioned avoidance response test except that fasted rats were employed and the animals were treated orally.

ALD50 for rats = conditions: rat, in vivo, oral dose of the catalepsy test
Experimental: as §2

[7] = target: T2, dopamine binding, corpus striatum (Rattus norvegicus, UniProt P61169); test: Test V: receptor binding assay, tritiated spiperone as ligand, dopamine binding assay (psychotropic); conditions: tritiated siperone as ligand, Compound 7: average of two determinations
T2 construct: The corpus striatum of male Sprague-Dawley rats (Charles River Laboratories) is employed as the test tissue; tissue Charles River Laboratories; host or cells: corpus striatum of male Sprague-Dawley rats
From the text: V. Receptor binding assay, IC50 in nM, tritiated siperone as
as §1
Test V is a dopamine binding assay which reflects neuroleptic activity (Burt, Creese, and Snyder, Molec. Pharmacol. 12:800 (1976); Burt, Creese, and Snyder, Science 196: 326 (1977); Creese, Burt, and Snyder, Science 192: 481 (1976)). The corpus striatum of male Sprague-Dawley rats (Charles River Laboratories) is employed as the test tissue. The radiolabeled ligand is tritiated spiperone. […] Thus, any value less than 1000 nM in Test V represents potential neuroleptic utility.

ALD50 in mice = conditions: mouse, in vivo
Experimental: as §2

mouse [8] = test: Test III: spontaneous motor activity, activity cage mouse treated orally (CNS depression); conditions: in words; for sedative action (Tests III and IV): oral and intraperitoneal
From the text: as §6
mouse treated orally (CNS depression).
as §7

in vivo = conditions: mouse, po
From the text: as §6
mouse treated orally (CNS depression).
as §7

[9] = Test II, fed rat, intraperitoneal
[10] = Test IV, activity cage mouse, intraperitoneal, reflects approximately 50% reduction in spontaneous motor activity, read-out: AED-0.3

T2 sequence (P61169 whole entry): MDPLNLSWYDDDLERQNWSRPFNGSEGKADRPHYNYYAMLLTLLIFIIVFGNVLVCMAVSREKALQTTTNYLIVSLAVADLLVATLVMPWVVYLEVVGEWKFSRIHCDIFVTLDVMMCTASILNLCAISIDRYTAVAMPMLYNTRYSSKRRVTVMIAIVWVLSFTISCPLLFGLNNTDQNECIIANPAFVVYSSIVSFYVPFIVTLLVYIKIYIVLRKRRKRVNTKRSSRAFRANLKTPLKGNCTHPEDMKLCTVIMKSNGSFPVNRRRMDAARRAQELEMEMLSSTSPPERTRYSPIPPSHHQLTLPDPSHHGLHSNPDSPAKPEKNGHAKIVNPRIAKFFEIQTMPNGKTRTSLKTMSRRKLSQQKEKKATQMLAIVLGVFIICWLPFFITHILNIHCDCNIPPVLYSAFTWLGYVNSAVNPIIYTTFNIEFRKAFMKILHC

Structure (SMILES) | ED50 [2] [mg/kg] | ED50 [5, 10] [mg/kg] | IC50 [6] [nM] | ED50 (fed rat; [9]) [mg/kg] | IC50 [3] [nM] | rat catalepsy test result (rat) | ED50 (fasted rat; Test I, fasted rat, oral) [mg/kg] | also measured
COc1cccnc1N1CCN(CCCCN2C(=O)CC3(CCCC3)CC2=O)CC1 [Compound No. 7] | – | – | – | – | 65 | inactive | 55 | LD50 (ALD50 for rats): 200 mg/kg; IC50 [7]: 100 nM; LD50 (ALD50 in mice): 500 mg/kg
CN(C)CCCN1c2ccccc2Sc2ccc(Cl)cc21 [Chlorpromazine, chlorpromazine] | – | 3.6 | – | – | 31 | – | – | ED5 in the rat catalepsy test (rat): 4.1 mg/kg; ED50 (fasted rat; Rattus norvegicus, po): 39 mg/kg; ED50 (fed rat; Rattus norvegicus): 4.8 mg/kg; alpha-adrenergic blocking activity ([6]; in words, rat seminal vesicle): strong
CC1CN(c2ncccc2C#N)CCN1CCCCN1C(=O)CC2(CCCC2)CC1=O (centres unmarked) [compound 5, 2-[4-[4-(7,9-Dioxo-8-azaspiro[4.5]decan-8-yl)butyl]-3-methyl-1-piperazinyl]pyridine-3-carbonitrile] | – | – | – | – | – | – | 85 | IC50 [7]: 400 nM
N#Cc1cccnc1N1CCN(CCCCN2C(=O)CC3(CCCC3)CC2=O)CC1 [Compound No. 4, 2-[4-[4-(7,9-Dioxo-8-azaspiro[4.5]decan-8-yl)butyl]-1-piperazinyl]pyridine-3-carbonitrile] | 97 | – | – | – | 360 | inactive | 24 | potency in Test I (neuroleptic action) (fasted rat; in words, fasted rat, oral): good potency; potency in Test III (sedative action) (mouse [8]; oral): low potency; sedative action (Tests III and IV) (mouse [8]): lack of sedative action; potency in Test VI (alpha-adrenergic blocking action) ([3]; in words): low potency
O=C1CC2(CCCC2)CC(=O)N1CCCCN1CCN(c2ncccn2)CC1 [Compound No. 6, buspirone] | – | – | – | 4.3 | – | inactive | 48 | ED50 (in vivo): 92 mg/kg; ED50 ([5]; mouse): 33 mg/kg

The next lines start with results.

ED50 [2] [mg/kg] | ED50 [5, 10] [mg/kg] | IC50 [6] [nM] | Structure (SMILES) | ED50 (fed rat; [9]) [mg/kg] | IC50 [3] [nM] | rat catalepsy test result (rat) | ED50 (fasted rat; Test I, fasted rat, oral) [mg/kg] | also measured
82 | 7.4 | 182 | COc1cccc(N2CCN(CCCN3C(=O)CC4(CCCC4)CC3=O)CC2)n1 [Compound No. 2] | > 50 | 48 | – | – | alpha-adrenergic blocking agent (Tests VI and VII) [1]: relatively strong; activity in the conditioned avoidance response test (Test II) (fed rat; fed rat, intraperitoneal): very substantially less active; activity by intraperitoneal route (Test IV) relative to oral route (Test III) (mouse [4]): several-fold stronger activity
– | 41 | 5830 | O=C1CC2(CCCC2)CC(=O)N1CCN1CCN(c2ccccn2)CC1 [compound 1] | 22.6 | – | – | – | activity in the conditioned avoidance response test (Test II) (fed rat; fed rat, intraperitoneal): very substantially less active
10 | 2.6 | 871 | O=C1CC2(CCCC2)CC(=O)N1CCCCN1CCN(c2ccccn2)CC1 [Compound No. 3] | 2.8 | 280 | – | 34 | sedative action (Tests III and IV) (mouse [8]): high; activity by intraperitoneal route (Test IV) relative to oral route (Test III) (mouse [4]): several-fold stronger activity
